Results as given in PMC5025651, “Reprofiled anthelmintics abate hypervirulent stationary-phase Clostridium difficile” (Scientific Reports, 2016).

Experiments:
[1] = test system: C. difficile isolate 20110986 (ribotype 078); experiment: MIC by broth microdilution; type: cell-based, Clostridium difficile; settings: Clostridioides difficile; isolate 20110986, ribotype 078; duplicate; read-out: MIC
[2] = test system: C. difficile isolate 20100584 (ribotype 014); experiment: MIC by broth microdilution; type: cell-based, Clostridium difficile; settings: Clostridioides difficile; isolate 20100584, ribotype 014; duplicate; read-out: MIC
[3] = test system: C. difficile isolate 20111163 (ribotype 024); experiment: MIC by broth microdilution; type: cell-based, Clostridium difficile; settings: Clostridioides difficile; isolate 20111163, ribotype 024; duplicate; read-out: MIC
[4] = test system: C. difficile isolate 20110566 (ribotype 020); experiment: MIC by broth microdilution; type: cell-based, Clostridium difficile; settings: Clostridioides difficile; isolate 20110566, ribotype 020; duplicate; read-out: MIC
[5] = test system: C. difficile isolate 20110973 (ribotype 106); experiment: MIC by broth microdilution; type: cell-based, Clostridium difficile; settings: Clostridioides difficile; isolate 20110973, ribotype 106; duplicate; read-out: MIC
[6] = test system: C. difficile isolate 20100422 (ribotype 054); experiment: MIC by broth microdilution; type: cell-based, Clostridium difficile; settings: Clostridioides difficile; isolate 20100422, ribotype 054; duplicate; read-out: MIC
L. plantarum ATCC 8014 = experiment: MIC by broth microdilution; type: cell-based; settings: Lactiplantibacillus plantarum, ATCC8014; L. plantarum ATCC 8014; CAMHB with 5% laked horse blood, ~48 h; duplicate; read-out: MIC
[7] = test system: C. difficile isolate 20121190 (ribotype 126); experiment: MIC by broth microdilution; type: cell-based, Clostridium difficile; settings: Clostridioides difficile; isolate 20121190, ribotype 126; duplicate; read-out: MIC
[8] = test system: C. difficile isolate 20110960 (ribotype 017); experiment: MIC by broth microdilution; type: cell-based, Clostridium difficile; settings: Clostridioides difficile; isolate 20110960, ribotype 017; duplicate; read-out: MIC
16 C. difficile isolates = experiment: MIC by broth microdilution, summary over 16 C. difficile isolates; type: cell-based, Clostridium difficile; settings: n = 2
C. difficile strain 4118 = experiment: Time-kill kinetics against stationary-phase cultures; type: cell-based, Clostridium difficile; settings: 16× MIC (metronidazole 4 μg/mL, vancomycin 32 μg/mL), up to 24 h
Protocol: At t = 0, 3, 6 and 24 h, sample aliquots were withdrawn from the treated cultures and bacterial viability was scored by plating serial dilutions on BHIS agar plates. The agar plates were incubated in the anaerobic chamber for 20–24 h at 37 °C. Kinetic experiments were performed at least twice.

[9] = test system: C. difficile isolate 20110961 (ribotype A12); experiment: MIC by broth microdilution; type: cell-based, Clostridium difficile; settings: Clostridioides difficile; isolate 20110961, ribotype A12; duplicate; read-out: MIC
[10] = test system: C. difficile isolate 20110869 (ribotype 001_072); experiment: MIC by broth microdilution; type: cell-based, Clostridium difficile; settings: Clostridioides difficile; isolate 20110869, ribotype 001_072; duplicate; read-out: MIC
[11] = test system: C. difficile isolate 20120016 (ribotype 019); experiment: MIC by broth microdilution; type: cell-based, Clostridium difficile; settings: Clostridioides difficile; isolate 20120016, ribotype 019; duplicate; read-out: MIC
P. aeruginosa PAO1 = experiment: MIC by broth microdilution; type: cell-based; settings: Pseudomonas aeruginosa; P. aeruginosa PAO1; CAMHB, aerobic; duplicate; read-out: MIC
C. sporogenes ATCC 15579 = experiment: MIC by broth microdilution; type: cell-based; settings: Clostridium sporogenes, ATCC15579, BHIS, anaerobic, duplicate
S. aureus RN4220 = experiment: MIC by broth microdilution; type: cell-based; settings: Staphylococcus aureus, CAMHB, aerobic, duplicate
[12] = test system: B. breve Strain EX336960VC19; experiment: MIC by broth microdilution; type: cell-based; settings: Bifidobacterium breve; B. breve EX336960VC19; LSM broth, anaerobic; duplicate; read-out: MIC
P. distasonis ATCC 8503 = experiment: MIC by broth microdilution; type: cell-based; settings: Parabacteroides distasonis, ATCC8503; P. distasonis ATCC 8503; supplemented Brucella broth, anaerobic; duplicate; read-out: MIC
A. baumannii M2 = experiment: MIC by broth microdilution; type: cell-based; settings: Acinetobacter baumannii; A. baumannii M2; CAMHB, aerobic; duplicate; read-out: MIC
S. epidermidis 1457 = experiment: MIC by broth microdilution; type: cell-based; settings: Staphylococcus epidermidis; S. epidermidis 1457; CAMHB, aerobic; duplicate; read-out: MIC
[13] = test system: C. difficile isolate 20121412 (ribotype 047); experiment: MIC by broth microdilution; type: cell-based, Clostridium difficile; settings: Clostridioides difficile; isolate 20121412, ribotype 047; duplicate; read-out: MIC
[14] = test system: L. reuteri Strain CF48-3A; experiment: MIC by broth microdilution; type: cell-based, Lactobacillus reuteri; settings: Limosilactobacillus reuteri; L. reuteri CF48-3A; CAMHB with 5% laked horse blood, ~48 h; duplicate; read-out: MIC
[15] = test system: C. clostridioforme ATCC 25537; experiment: MIC by broth microdilution; type: cell-based, Clostridium clostridioforme; settings: Clostridium, ATCC25537; C. clostridioforme ATCC 25537; BHIS, anaerobic; duplicate; read-out: MIC
[16] = test system: C. difficile isolate 20110740 (ribotype 018); experiment: MIC by broth microdilution; type: cell-based, Clostridium difficile; settings: Clostridioides difficile; isolate 20110740, ribotype 018; duplicate; read-out: MIC
P. nigrescens ATCC 33563 = experiment: MIC by broth microdilution; type: cell-based; settings: Prevotella nigrescens, ATCC33563; P. nigrescens ATCC 33563; supplemented Brucella broth, anaerobic; duplicate; read-out: MIC
B. subtilis ATCC 6051 = experiment: MIC by broth microdilution; type: cell-based; settings: Bacillus subtilis, ATCC6051; B. subtilis ATCC 6051; CAMHB, aerobic; duplicate; read-out: MIC
Hemolysis assay = type: cell-based; settings: sheep, sheep red blood cells (3% suspension), pH 7.4; 32 µg/mL, 1 h, 37 °C; 1% Triton X-100 positive control; triplicate; read-out: Hemolysis (%)
In short: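 PBS-washed sheep erythrocytes (3% suspension, pH 7.4) were exposed to compound at 32 μg/mL final for 1 h at 37 °C. After centrifugation, supernatant absorbance at 540 nm was read against 1% Triton X-100 (full lysis) and 0.5% DMSO in PBS. Triplicate.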

[17] = test system: L. johnsonii Strain 135-1-CHN; experiment: MIC by broth microdilution; type: cell-based; settings: Lactobacillus johnsonii, STRAIN1351CHN; L. johnsonii 135-1-CHN; CAMHB with 5% laked horse blood, ~48 h; duplicate; read-out: MIC
[18] = test system: B. fragilis Strain CL05T00C42; experiment: MIC by broth microdilution; type: cell-based; settings: Bacteroides fragilis; B. fragilis CL05T00C42; supplemented Brucella broth, anaerobic; duplicate; read-out: MIC
[19] = test system: B. longum subsp. longum Strain 44B; experiment: MIC by broth microdilution; type: cell-based; settings: Bifidobacterium longum; B. longum subsp. longum 44B; LSM broth, anaerobic; duplicate; read-out: MIC
[20] = test system: C. difficile isolate 20110742 (ribotype 002); experiment: MIC by broth microdilution; type: cell-based, Clostridium difficile; settings: Clostridioides difficile; isolate 20110742, ribotype 002; duplicate; read-out: MIC
[21] = test system: C. difficile strain 4118 (CD4118, ATCC BAA-1870, ribotype 027); experiment: MIC by broth microdilution; type: cell-based, Clostridium difficile; settings: Clostridioides difficile, ATCCBAA1870; BHIS broth, anaerobic, 20–24 h, n = 2; read-out: MIC C. difficile 4118

Cc1ncc([N+](=O)[O-])n1CCO [Metronidazole, metronidazole]
0.13 to 0.25 µg/mL: MIC [1] | MIC Range (16 C. difficile isolates; range over 16 C. difficile isolates)
0.25 µg/mL: MIC [2] | MIC [4] | MIC [5] | MIC [6] | MIC [8] | MIC50 (16 C. difficile isolates; Clostridioides difficile, MIC at which 50% of the 16 isolates are inhibited, read-out: MIC50) | MIC90 (16 C. difficile isolates; Clostridioides difficile, MIC at which 90% of the 16 isolates are inhibited, read-out: MIC90) | MIC [9] | MIC [10] | MIC [11] | MIC (C. sporogenes ATCC 15579) | MIC [13] | MIC [16] | MIC [21]
> 32 µg/mL: MIC (L. plantarum ATCC 8014) | MIC (P. aeruginosa PAO1) | MIC (S. aureus RN4220) | MIC [12] | MIC (A. baumannii M2) | MIC (S. epidermidis 1457) | MIC [14] | MIC (B. subtilis ATCC 6051) | MIC [17]
< 3 log: log killing of CD4118 stationary-phase cells (C. difficile strain 4118)
4 to 8 µg/mL: MIC [19]
2 µg/mL: MIC (P. distasonis ATCC 8503) | MIC (P. nigrescens ATCC 33563)
< 1%: hemolysis at 1 h, 32 µg/mL (Hemolysis assay)
0.5 µg/mL: MIC [18]
0.13 µg/mL: MIC [3] | MIC [7] | MIC [20]
0.06 µg/mL: MIC [15]
